# Experimental data as given in ChEMBL document CHEMBL2321683, “Discovery of potent, selective and orally bioavailable imidazo[1,5-a]pyrazine derived ACK1 inhibitors” (Bioorg Med Chem Lett, 2013).
# How the values were obtained:
# [1] = Clearance in mouse at 2 mg/kg, iv; type: ADME, organism-based; design: dose 2 mg/kg, route intravenous; settings: in vivo
# [2] = AUC in mouse at 20 mg/kg, po; type: ADME, organism-based; design: dose 20 mg/kg, route oral; settings: plasma
# [3] = Cmax in mouse at 20 mg/kg, po; type: ADME, organism-based; design: dose 20 mg/kg, route oral; settings: in vivo
# [4] = (§1) Oral bioavailability in mouse at 20 mg/kg; type: ADME, organism-based; settings: in vivo
# [5] = Volume of distribution at steady state in mouse at 2 mg/kg, iv; type: ADME, organism-based; design: dose 2 mg/kg, route intravenous; settings: in vivo, read-out: Vdss
# [6] = Half life in mouse at 20 mg/kg, po; type: ADME, organism-based; design: dose 20 mg/kg, route oral; settings: in vivo
# Activated CDC42 kinase 1 [7] = molecular target: T1, Activated CDC42 kinase 1 (Homo sapiens, UniProt Q07912)
# Target sequence in this assay (Q07912 whole entry): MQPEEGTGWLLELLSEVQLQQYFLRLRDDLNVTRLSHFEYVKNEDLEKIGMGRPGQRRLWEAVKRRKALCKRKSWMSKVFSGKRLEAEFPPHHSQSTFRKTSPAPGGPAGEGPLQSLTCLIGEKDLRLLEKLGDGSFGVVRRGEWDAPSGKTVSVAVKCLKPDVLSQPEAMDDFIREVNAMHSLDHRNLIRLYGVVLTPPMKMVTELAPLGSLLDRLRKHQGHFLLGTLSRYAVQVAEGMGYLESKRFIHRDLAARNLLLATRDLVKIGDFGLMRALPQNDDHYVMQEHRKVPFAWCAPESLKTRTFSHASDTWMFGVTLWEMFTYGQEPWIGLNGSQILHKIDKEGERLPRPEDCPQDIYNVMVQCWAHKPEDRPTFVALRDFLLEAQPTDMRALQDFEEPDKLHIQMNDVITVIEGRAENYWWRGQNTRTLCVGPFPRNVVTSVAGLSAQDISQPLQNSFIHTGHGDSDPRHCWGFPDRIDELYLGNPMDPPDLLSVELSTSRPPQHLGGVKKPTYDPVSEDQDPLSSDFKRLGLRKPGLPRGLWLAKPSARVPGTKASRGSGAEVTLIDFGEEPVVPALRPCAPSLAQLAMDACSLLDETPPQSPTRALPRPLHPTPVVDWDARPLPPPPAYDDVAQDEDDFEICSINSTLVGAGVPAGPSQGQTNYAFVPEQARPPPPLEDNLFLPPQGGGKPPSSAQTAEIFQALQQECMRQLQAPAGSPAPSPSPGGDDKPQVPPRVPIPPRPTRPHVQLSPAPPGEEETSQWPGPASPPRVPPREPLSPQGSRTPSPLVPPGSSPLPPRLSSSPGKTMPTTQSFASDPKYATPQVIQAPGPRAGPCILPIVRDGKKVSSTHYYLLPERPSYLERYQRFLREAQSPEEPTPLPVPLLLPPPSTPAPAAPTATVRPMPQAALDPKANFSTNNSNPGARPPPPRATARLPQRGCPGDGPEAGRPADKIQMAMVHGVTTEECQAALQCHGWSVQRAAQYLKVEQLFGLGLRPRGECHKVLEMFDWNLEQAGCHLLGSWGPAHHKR
# Activated CDC42 kinase 1 [8] = molecular target: T1, Activated CDC42 kinase 1; remark: listed apart in the source
# Target sequence in this assay (Q07912 whole entry): as above
# Mus musculus = assay: as §1; type: ADME, organism-based; settings: in vivo
# Cytochrome P450 2D6 = Cytochrome P450 2D6 (Homo sapiens, UniProt P10635); assay: Inhibition of CYP2D6 (unknown origin); type: ADME
# [9] = molecular target: Tyrosine-protein kinase Lck (Homo sapiens) (UniProt P06239); assay: Inhibition of LCK (unknown origin) at 1 uM
# Cytochrome P450 3A4 = Cytochrome P450 3A4 (Homo sapiens, UniProt P08684); assay: Inhibition of CYP3A4 (unknown origin); type: ADME
# [10] = molecular target: Tyrosine-protein kinase Fyn (Homo sapiens) (UniProt P06241); assay: Inhibition of FYN (unknown origin) at 1 uM
# [11] = molecular target: Tyrosine-protein kinase Lyn (Homo sapiens) (UniProt P07948); assay: Inhibition of LYNB (unknown origin) at 1 uM
# [12] = molecular target: Tyrosine-protein kinase FRK (Homo sapiens) (UniProt P42685); assay: Inhibition of FRK (unknown origin) at 1 uM
# [13] = molecular target: T2, Tyrosine-protein kinase TXK (Homo sapiens) (UniProt P42681); assay: Inhibition of TXK (unknown origin) at 1 uM
# T2 sequence (whole entry): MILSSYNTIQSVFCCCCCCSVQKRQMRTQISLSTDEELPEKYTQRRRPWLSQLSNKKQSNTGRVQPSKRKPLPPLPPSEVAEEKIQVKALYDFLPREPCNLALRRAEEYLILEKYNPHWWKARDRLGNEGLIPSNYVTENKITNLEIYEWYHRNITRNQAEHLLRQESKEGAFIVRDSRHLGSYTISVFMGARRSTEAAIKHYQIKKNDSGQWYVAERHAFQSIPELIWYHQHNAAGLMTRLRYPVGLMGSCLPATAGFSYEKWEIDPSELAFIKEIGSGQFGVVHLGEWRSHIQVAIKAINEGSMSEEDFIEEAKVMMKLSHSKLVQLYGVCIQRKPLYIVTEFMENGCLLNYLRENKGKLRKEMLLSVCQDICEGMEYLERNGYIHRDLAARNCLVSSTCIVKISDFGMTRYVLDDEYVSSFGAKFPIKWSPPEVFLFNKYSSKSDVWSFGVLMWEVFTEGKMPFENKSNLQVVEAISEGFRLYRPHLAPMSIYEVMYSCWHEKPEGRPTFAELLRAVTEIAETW
# [14] = molecular target: Tyrosine-protein kinase HCK (Homo sapiens) (UniProt P08631); assay: Inhibition of HCK (unknown origin) at 1 uM
# [15] = Permeability of the compound by PAMPA at pH 5; type: ADME; settings: read-out: permeability
# Cytochrome P450 1A2 = molecular target: T3, Cytochrome P450 1A2 (Homo sapiens, UniProt P05177); assay: Inhibition of CYP1A2 (unknown origin); type: ADME
# T3 sequence (P05177 whole entry): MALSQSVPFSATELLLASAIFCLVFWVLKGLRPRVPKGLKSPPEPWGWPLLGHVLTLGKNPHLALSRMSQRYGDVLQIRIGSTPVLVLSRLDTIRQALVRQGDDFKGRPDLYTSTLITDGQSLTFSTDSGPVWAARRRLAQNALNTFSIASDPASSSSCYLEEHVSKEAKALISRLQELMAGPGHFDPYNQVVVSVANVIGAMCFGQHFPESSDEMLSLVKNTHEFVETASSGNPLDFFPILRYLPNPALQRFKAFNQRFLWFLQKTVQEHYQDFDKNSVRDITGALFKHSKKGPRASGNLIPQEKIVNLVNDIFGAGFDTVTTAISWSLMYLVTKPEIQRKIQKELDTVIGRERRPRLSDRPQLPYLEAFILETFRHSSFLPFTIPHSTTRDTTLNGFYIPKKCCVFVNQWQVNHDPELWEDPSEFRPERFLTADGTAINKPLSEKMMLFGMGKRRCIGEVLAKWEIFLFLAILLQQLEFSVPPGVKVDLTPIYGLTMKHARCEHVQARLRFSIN
# [16] = Aqueous solubility of the compound at pH 7.4; type: physicochemical
# [17] = molecular target: Tyrosine-protein kinase Yes (Homo sapiens) (UniProt P07947); assay: Inhibition of YES (unknown origin) at 1 uM
# Cytochrome P450 2C9 = Cytochrome P450 2C9 (Homo sapiens, UniProt P11712); assay: Inhibition of CYP2C9 (unknown origin); type: ADME
# [18] = molecular target: Tyrosine-protein kinase Fgr (Homo sapiens) (UniProt P09769); assay: Inhibition of FGR (unknown origin) at 1 uM
# [19] = molecular target: Tyrosine-protein kinase Srms (Homo sapiens) (UniProt Q9H3Y6); assay: Inhibition of SRMS (unknown origin) at 1 uM
# [20] = Permeability of the compound by PAMPA at pH 7.4; type: ADME; settings: read-out: permeability
# [21] = molecular target: Tyrosine-protein kinase Blk (Homo sapiens) (UniProt P51451); assay: Inhibition of BLK (unknown origin) at 1 uM
# [22] = molecular target: T4, Tyrosine-protein kinase Tec (Homo sapiens) (UniProt P42680); assay: Inhibition of TEC (unknown origin) at 1 uM
# T4 sequence (whole entry): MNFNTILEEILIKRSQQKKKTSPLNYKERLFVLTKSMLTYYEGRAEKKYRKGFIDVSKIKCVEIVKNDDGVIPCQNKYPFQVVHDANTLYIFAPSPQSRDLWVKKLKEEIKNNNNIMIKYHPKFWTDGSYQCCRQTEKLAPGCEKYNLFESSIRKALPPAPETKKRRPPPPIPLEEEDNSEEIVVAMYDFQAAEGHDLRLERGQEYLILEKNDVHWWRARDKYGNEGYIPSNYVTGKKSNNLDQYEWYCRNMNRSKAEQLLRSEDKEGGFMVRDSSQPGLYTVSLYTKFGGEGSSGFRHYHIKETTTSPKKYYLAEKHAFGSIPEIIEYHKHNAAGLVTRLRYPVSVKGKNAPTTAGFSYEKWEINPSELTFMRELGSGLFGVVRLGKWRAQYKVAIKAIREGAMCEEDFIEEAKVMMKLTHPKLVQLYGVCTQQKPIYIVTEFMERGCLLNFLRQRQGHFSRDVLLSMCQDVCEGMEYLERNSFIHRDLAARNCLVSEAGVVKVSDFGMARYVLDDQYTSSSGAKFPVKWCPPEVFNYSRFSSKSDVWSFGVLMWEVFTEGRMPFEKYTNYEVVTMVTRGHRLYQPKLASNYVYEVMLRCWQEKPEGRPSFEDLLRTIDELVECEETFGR
# Activated CDC42 kinase 1 [23] = molecular target: T1, Activated CDC42 kinase 1; settings: 1 uM
# Target sequence in this assay (Q07912 whole entry, looked up): as the sequence (Q07912 whole entry) above
# [24] = molecular target: Proto-oncogene tyrosine-protein kinase Src (Homo sapiens) (UniProt P12931); assay: Inhibition of SRC (unknown origin) at 1 uM
# Proto-oncogene tyrosine-protein kinase Src (Homo sapiens), sequence (P12931 2-536 limits assumed): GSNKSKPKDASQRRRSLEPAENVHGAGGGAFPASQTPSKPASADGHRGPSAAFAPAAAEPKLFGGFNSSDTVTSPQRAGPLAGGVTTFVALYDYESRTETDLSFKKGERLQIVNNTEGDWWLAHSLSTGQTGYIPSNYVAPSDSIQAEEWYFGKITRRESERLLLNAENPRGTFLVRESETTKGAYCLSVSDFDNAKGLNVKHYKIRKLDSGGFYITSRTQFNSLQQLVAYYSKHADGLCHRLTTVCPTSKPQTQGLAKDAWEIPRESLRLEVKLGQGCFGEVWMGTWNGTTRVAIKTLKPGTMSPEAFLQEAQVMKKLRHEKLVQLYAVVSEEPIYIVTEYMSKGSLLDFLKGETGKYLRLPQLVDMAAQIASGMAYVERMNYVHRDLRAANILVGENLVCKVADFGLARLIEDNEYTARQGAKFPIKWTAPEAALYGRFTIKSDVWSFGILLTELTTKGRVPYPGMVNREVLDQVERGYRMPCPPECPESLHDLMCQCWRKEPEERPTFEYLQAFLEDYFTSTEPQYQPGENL
# Tyrosine-protein kinase Lck (Homo sapiens), sequence (P06239 2-509 limits assumed): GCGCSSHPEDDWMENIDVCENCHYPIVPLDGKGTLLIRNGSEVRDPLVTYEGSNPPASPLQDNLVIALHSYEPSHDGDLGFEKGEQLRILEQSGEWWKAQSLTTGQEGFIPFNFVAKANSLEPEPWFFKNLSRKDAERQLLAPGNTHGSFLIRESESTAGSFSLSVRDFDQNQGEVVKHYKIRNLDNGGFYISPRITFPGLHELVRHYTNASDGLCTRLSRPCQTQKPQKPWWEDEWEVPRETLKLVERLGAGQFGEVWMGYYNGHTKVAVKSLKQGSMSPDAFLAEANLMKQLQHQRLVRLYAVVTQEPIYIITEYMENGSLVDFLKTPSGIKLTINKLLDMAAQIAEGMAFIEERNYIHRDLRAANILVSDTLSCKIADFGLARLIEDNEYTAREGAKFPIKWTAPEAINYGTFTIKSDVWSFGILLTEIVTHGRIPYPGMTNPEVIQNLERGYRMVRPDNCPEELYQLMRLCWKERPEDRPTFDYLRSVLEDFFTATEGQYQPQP
# Cytochrome P450 3A4, sequence (P08684 whole entry): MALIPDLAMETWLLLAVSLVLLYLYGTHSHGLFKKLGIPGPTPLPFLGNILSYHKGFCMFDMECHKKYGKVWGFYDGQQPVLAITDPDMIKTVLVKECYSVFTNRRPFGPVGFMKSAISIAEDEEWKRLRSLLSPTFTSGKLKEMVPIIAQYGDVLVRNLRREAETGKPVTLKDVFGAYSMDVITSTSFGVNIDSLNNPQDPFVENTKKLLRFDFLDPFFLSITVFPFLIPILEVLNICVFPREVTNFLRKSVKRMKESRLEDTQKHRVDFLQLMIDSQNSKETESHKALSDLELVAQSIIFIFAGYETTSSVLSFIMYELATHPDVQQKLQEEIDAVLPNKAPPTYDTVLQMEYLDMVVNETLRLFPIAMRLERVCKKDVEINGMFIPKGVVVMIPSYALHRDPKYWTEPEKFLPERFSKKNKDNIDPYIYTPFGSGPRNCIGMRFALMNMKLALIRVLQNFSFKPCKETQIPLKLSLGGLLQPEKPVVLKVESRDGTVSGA
# Cytochrome P450 2C9, sequence (P11712 whole entry): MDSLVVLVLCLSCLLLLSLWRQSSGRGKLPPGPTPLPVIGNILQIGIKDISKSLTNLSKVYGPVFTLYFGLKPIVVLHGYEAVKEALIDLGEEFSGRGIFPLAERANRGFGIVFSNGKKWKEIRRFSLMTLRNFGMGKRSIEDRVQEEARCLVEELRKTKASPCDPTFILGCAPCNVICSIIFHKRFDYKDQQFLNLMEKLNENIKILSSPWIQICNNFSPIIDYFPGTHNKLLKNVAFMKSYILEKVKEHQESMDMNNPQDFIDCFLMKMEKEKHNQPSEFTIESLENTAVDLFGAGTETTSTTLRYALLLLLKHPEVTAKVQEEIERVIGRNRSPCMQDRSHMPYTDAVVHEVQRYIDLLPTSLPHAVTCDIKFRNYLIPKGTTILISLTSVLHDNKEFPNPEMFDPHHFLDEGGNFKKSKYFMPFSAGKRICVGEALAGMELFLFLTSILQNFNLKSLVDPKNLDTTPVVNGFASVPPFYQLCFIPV
# Tyrosine-protein kinase Yes (Homo sapiens), sequence (P07947 2-543 limits assumed): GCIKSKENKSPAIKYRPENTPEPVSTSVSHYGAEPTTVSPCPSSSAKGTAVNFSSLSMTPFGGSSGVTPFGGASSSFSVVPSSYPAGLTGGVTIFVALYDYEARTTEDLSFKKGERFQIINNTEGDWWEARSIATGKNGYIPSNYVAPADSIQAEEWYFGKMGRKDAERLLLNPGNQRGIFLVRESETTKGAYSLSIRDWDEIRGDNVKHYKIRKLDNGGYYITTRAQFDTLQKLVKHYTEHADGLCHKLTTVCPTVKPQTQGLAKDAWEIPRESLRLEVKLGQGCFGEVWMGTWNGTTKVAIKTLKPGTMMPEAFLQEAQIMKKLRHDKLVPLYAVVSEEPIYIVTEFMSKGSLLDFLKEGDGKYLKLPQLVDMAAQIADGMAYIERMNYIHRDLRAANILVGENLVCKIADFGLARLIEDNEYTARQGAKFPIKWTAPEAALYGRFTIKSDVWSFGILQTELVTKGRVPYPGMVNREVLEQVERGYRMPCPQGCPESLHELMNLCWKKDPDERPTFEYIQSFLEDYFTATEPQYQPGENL
# Tyrosine-protein kinase Blk (Homo sapiens), sequence (P51451 2-505 limits assumed): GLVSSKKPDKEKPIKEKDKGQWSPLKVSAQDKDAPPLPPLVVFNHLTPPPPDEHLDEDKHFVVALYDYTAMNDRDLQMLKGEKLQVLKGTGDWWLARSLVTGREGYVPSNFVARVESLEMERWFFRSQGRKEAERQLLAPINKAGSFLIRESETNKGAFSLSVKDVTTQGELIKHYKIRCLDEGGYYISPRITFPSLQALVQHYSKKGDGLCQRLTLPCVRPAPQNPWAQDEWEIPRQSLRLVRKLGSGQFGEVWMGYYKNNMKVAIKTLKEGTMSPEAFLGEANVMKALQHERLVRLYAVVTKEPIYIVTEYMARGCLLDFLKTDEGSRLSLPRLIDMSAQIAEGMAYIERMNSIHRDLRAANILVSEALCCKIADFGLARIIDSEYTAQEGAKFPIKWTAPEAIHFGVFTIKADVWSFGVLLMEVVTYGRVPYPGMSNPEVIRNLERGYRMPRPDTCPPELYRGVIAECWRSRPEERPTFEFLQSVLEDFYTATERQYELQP
# Tyrosine-protein kinase HCK (Homo sapiens), sequence (P08631 2-526 limits assumed): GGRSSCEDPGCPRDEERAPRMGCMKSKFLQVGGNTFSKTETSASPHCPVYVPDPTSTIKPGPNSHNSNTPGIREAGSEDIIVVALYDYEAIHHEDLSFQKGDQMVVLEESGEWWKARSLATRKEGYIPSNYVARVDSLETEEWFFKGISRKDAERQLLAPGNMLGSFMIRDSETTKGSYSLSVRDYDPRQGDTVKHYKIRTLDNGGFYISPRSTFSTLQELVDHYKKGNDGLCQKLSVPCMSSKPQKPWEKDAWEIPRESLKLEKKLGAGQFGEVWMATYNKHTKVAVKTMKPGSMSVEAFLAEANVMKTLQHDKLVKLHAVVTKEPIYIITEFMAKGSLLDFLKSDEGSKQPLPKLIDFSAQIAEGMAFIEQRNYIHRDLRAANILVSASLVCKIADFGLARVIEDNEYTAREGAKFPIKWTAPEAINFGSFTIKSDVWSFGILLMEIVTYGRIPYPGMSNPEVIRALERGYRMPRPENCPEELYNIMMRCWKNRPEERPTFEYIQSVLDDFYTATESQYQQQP
clearance [1],AUC [2],Cmax [3],bioavailability [4],Vd [5],half-life [6],IC50 (Activated CDC42 kinase 1 [8]),Structure (SMILES),further results
62 mL/min/kg,4680 ng·h/mL,11.2 µM,87%,1.7 L/kg,4.9 h,,C[C@]1(O)C[C@@H](c2nc(-c3ccc(Oc4ccccc4)cc3)c3c(N)nccn32)C1,
,,,,,,,Nc1nccn2c(C3CCC3)nc(-c3ccn(Cc4ccccc4)c(=O)c3)c12,IC50 (Activated CDC42 kinase 1 [7]): > 10000 nM
,,,,,,20 nM,COC(C)(C)CCn1nc(Nc2c(C)cccc2C)c2cnc(Nc3ccc(OCCN4CCCC4)c(F)c3)nc21,
,,,,,,,Nc1nccn2c(C3CCC3)nc(-c3ccc(C(O)c4ccccc4)cc3)c12 (stereo not given),IC50 (Activated CDC42 kinase 1 [7]): 280 nM
,,,,,,10 nM,c1ccc(-c2c(-c3ccc(OCCN4CCCC4)cc3)[nH]c3ncnc(NCC4SCCS4)c23)cc1,
,,,,,,620 nM,c1ccc(-c2oc3ncnc(NC[C@@H]4CCCO4)c3c2-c2ccccc2)cc1,
135 mL/min/kg,1240 ng·h/mL,0.9 µM,50%,9 L/kg,5.5 h,,Nc1nccn2c(C3CCC3)nc(-c3ccc(Oc4ccccc4)cc3)c12,
89 mL/min/kg,3940 ng·h/mL,4.6 µM,105%,3.3 L/kg,2.6 h,,CC(O)(c1ccccc1)c1ccc(-c2nc([C@H]3C[C@@](C)(O)C3)n3ccnc(N)c23)cc1 (mixture of isomers),
63 mL/min/kg,8540 ng·h/mL,5 µM,,1.7 L/kg,4.3 h,,C[C@]1(O)C[C@@H](c2nc(-c3ccc(C(F)(F)c4ccccc4)cc3)c3c(N)nccn32)C1,F (Mus musculus): 160%
39 mL/min/kg,8480 ng·h/mL,5.9 µM,98%,1.8 L/kg,3.8 h,,COc1cc(Oc2ccccc2)ccc1-c1nc([C@H]2C[C@@](C)(O)C2)n2ccnc(N)c12,IC50 (Cytochrome P450 2D6): > 20000 nM; inhibition [9]: > 80%; IC50 (Cytochrome P450 3A4): > 20000 nM; inhibition [10]: > 80%; inhibition [11]: > 80%; inhibition [12]: > 80%; inhibition [13]: > 80%; inhibition [14]: > 80%; Papp [15]: 280 ×10⁻⁶ cm/s; IC50 (Cytochrome P450 1A2): > 20000 nM; solubility [16]: > 100 µM; inhibition [17]: > 80%; IC50 (Cytochrome P450 2C9): > 20000 nM; inhibition [18]: > 80%; inhibition [19]: > 80%; Papp [20]: 591 ×10⁻⁶ cm/s; inhibition [21]: > 80%; inhibition [22]: > 80%; inhibition (Activated CDC42 kinase 1 [23]): 100%; inhibition [24]: > 80%
